Read-outs that look alike come from different tables or passages of the source.
Columns and labels:
[1] = target: T1, PD-L1 (Homo sapiens, UniProt Q9NZQ7); assay: X-ray co-crystal structure ([…] Å), 1H NMR binding; IC50 from HTRF PD-1/PD-L1 disruption
T1 construct: gene CD274

[2] = target: T1, PD-L1; assay: as above; remark: listed apart in the source

T1 sequence (Q9NZQ7 19-290): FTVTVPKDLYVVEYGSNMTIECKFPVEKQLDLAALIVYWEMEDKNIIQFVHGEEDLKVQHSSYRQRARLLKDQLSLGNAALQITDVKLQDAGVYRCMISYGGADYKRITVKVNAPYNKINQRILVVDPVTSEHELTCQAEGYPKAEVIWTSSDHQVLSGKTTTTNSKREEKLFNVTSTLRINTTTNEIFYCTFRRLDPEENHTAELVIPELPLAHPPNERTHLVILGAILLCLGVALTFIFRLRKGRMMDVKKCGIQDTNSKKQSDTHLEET

Row | Compound | IC50 [1] | IC50 [2]
1 | Cc1c(Nc2nccc3cc(CN4CC[C@@H](O)C4)cnc23)cccc1-c1cccc(-c2nc3cc(CN4CC[C@@H](C(=O)O)C4)cc(C#N)c3o2)c1C [INCB086550] | 2.59 ± 0.09 nM | 
2 | Cc1c(C=Cc2cc(CNC(C)(CO)C(=O)O)ccc2C(F)(F)F)cccc1-c1ccc2c(c1)OCCO2 (centres unmarked) [MAX-10181] |  | 6.88 ± 0.12 nM

Reference: article PMC12257390, “Characterization of Clinically Evaluated Small-Molecule Inhibitors of PD-L1 for Immunotherapy” (ACS Medicinal Chemistry Letters, 2025)
